Assay results published in patent publication US12691124B2, “Methods of controlling and improving brain health” (ICAHN SCHOOL OF MEDICINE AT MOUNT SINAI, priority 2019, dated 2026).

Tests used:
primary cortical neurons = assay: Gene expression in primary cortical neurons; type: cell-based, mouse
Description: Primary Cortical Neuron Culture. Embryonic day 18 (E18) timed-pregnant female mice were anesthetized with CO2 and sacrificed by cervical dislocation. In a dissection hood, 24-26 embryos per experiment were collected through an incision of the mother's abdomen, taken out of the amniotic sacs and decapitated in ice cold Hank's Balanced Salt Solution (HBSS). Using fine scissors and forceps, brains were rapidly dissected and the cortex cleared from meninges and isolated under a dissection microscope. Cortices were collected in ice cold HBSS and kept on ice until all embryos had been dissected. In a tissue culture hood, HBSS was removed and the cortex tissue digested by 0.25% Trypsin-EDTA for 12 minutes at 37° C., followed by DNase1 treatment for 10 minutes at 37° C. The tissue was dissociated by serial trituration with a 25 ml serological pipette, followed by trituration with 10 ml and 5 ml serological pipettes. Cell suspension was washed once with DMEM medium, supplemented with 10% FBS and 1% penicillin/streptomycin and passed through a […] cell strainer before counted on a hemocytometer. Single cells were seeded on poly-D-lysine (0.1 mg ml-1) coated wells at a density of 1×10^6 cells per well on a 12-well plate. Cells were grown in Neurobasal medium, complemented with B27 supplement, N2 supplement, and 0.5 mM L-glutamine and maintained at 37° C. in 5% CO2 for 1 week. […] Cultures were washed with phosphate-buffered saline (PBS) on ice and processed for RNA isolation using TRIzol/Chloroform extraction.
RNA Isolation. For in vitro gene expression analysis, neuronal culture plates were washed once with PBS, and TRIzol was added directly to cultures to isolate RNA (n=3 per group). For in vivo gene expression analysis, mice were anesthetized with CO2 and decapitated. The striata from two control and acute or chronic I-BET treated mice were rapidly dissected on ice and frozen in liquid nitrogen. RNA extraction from frozen samples was performed using TRIzol/Chloroform according to manufacturer's instructions (Invitrogen Corporation, Carlsbad, CA). RNA was precipitated overnight at −80° C. in isopropanol with 0.15 M sodium acetate, washed twice with 70% ethanol, air-dried, and resuspended in RNase-free water. RNA samples were purified using Rneasy Micro columns (Qiagen) with on-column DNAse treatment as specified by manufacturer. […]
RNA Sequencing. […] Duplexed libraries were sequenced on HiSeq 2000, typically yielding on average 60 million, 100 bp long single-end reads per sample (Illumina). […] After filtering out adaptor and low quality reads, reads were mapped using TopHat (version 2.0.8) to the mm9 mouse genome. […] Differentially expressed autosomal genes between control and acute I-BET858 or chronic I-BET858 libraries were determined using a p-value <0.05 and fold change of >2. […]

C57bl/6 mice = assay: Brain gene expression in IBET858 treated mice; type: in vivo, mouse
Method: In vivo I-BET858 treatment. IBET858 was developed and validated by GlaxoSmithKline. I-BET858 solutions used for in vivo studies (3 mg/ml) were prepared in 10% Kleptose buffer with 5% DMSO (pH 6.5) and maintained at 4° C. I-BET858 was made fresh daily, buffers were made fresh each week. 30 mg/kg I-BET858 or vehicle (Kleptose buffer pH=6.5) was delivered by i.p injection. For acute treatment, 6-week-old mice received a single I-BET858 injection. […] Gene expression and behavioral changes were assessed in 6 weeks old mice at 4 h (acute, n=8-10 for behavior, n=2 for gene expression analysis) or 12 h (chronic, n=10 for behavior, n=2 for gene expression analysis) after the (last) I-BET858 injection, respectively.
RNA Isolation. For in vitro gene expression analysis, neuronal culture plates were washed once with PBS, and TRIzol was added directly to cultures to isolate RNA (n=3 per group). For in vivo gene expression analysis, mice were anesthetized with CO2 and decapitated. The striata from two control and acute or chronic I-BET treated mice were rapidly dissected on ice and frozen in liquid nitrogen. RNA extraction from frozen samples was performed using TRIzol/Chloroform according to manufacturer's instructions (Invitrogen Corporation, Carlsbad, CA). RNA was precipitated overnight at −80° C. in isopropanol with 0.15 M sodium acetate, washed twice with 70% ethanol, air-dried, and resuspended in RNase-free water. RNA samples were purified using Rneasy Micro columns (Qiagen) with on-column DNAse treatment as specified by manufacturer. RNA integrity was assayed using nanodrop and RNA Pico chip on Bioanalyzer 2100 (Agilent, Santa Clara, CA) for quality RIN>9.
IBET treatment induces neuroprotective gene expression changes in the hippocampus of mice in vivo (FIG. 23A).

[1] = system: primary microglia exposed to lipopolysaccharide (LPS); assay: LPS-induced gene expression in primary microglia pretreated with IBET858; type: cell-based, mouse
Method: Primary Microglia Culture. Postnatal day 0 C57/Bl6 mice were decapitated in ice cold HBSS. The forebrain was rapidly dissected and treated as above in order to generate a single cell suspension. 60,000 cells per cm2 were seeded in vented, Poly-D-lysine coated flasks. Mixed glial cultures were maintained in DMEM containing 10% FBS and 1% penicillin/streptomycin for 3 weeks. After three weeks, microglia were isolated by shaking the mixed glial cultures for 4 hours at 360 rpm and re-plated at density on 100,0000 cells/cm2. Cultures were given 24 hours to settle before treatment. Cultures were pre-treated for 30 minutes with either DMSO (0.01%) or 1 uM IBET858. After 30 minutes, LPS (100 ng/ml) was added to the cultures. RNA was isolated with Trizol LS according to the manufacturer's recommendations after 1, 4 and 12 hours of LPS treatment.
To understand if BET proteins regulate the dynamic induction of pro-inflammatory gene networks, primary microglia were exposed to the bacterial cell wall component lipopolysaccharide, LPS. T, which is recognized by Tlr4, triggers a signal cascade that leads to an extensive increase in cytokine and chemokine production which causes significant damage to host tissues if left unrestrained. Nicodeme et al., “Suppression of Inflammation by a Synthetic Histone Mimic,” Nature 468:1119-1123 (2010), which is hereby incorporated by reference in its entirety. As before, microglial identity genes Tyrobp, Hexb and Trem2 were unaffected by IBET858 (FIG. 4B). As expected, LPS causes a time-dependent increase in pro-inflammatory gene expression in microglia (FIGS. 4C-4E). […] BET inhibition specifically decreases the expression of inflammatory genes (Il6, Cd33, and Nlrp3), interferon response pathway (Ifnb, Irf2/9, Mx1) and cell death mediators (Bid, Casp1/4/7/12, Traf1). […] Nicodeme et al., “Suppression of Inflammation by a Synthetic Histone Mimic,” Nature 468:1119-1123 (2010), which is hereby incorporated by reference in its entirety.

[2] = IBET858 treated mice compared to vehicle

CC(=O)N1c2ccc(-c3ccc(CN4CCCCC4)cc3)cc2[C@H](Nc2ccccc2)CC1C (stereo in doubt) [IBET858]
cellular composition of the culture and cell identity gene expression (primary cortical neurons; 1 week IBET858): does not change | autophagy, proteolysis and pro-survival genes (primary cortical neurons; chronic BET inhibition): up-regulation | metabolic genes (amino acid synthesis and import, glycolysis/TCA cycle, oxidative phosphorylation, fatty acid metabolism) (primary cortical neurons; chronic BET inhibition, day 14): down-regulated | genes decreased by rapamycin that were also decreased by IBET858 (primary cortical neurons; one week treatment, 93/165): 56% | Casp3 gene expression levels (C57bl/6 mice; 5 week IBET858 treatment in vivo): unaffected | autophagy and proteostasis genes (C57bl/6 mice; [2]): increased | genes involved in metabolic pathways (C57bl/6 mice; [2]): downregulated | chemotaxis, cell proliferation and NFkB pathway genes after LPS ([1]; 1 μM): insensitive | microglial identity genes Tyrobp, Hexb and Trem2 after LPS ([1]; 1 μM): unaffected | LPS gene induction ([1]; 1 μM pretreatment 30 min, LPS 1 h): little effect | LPS induced genes inhibited / LPS induced genes ([1]; LPS 4 hours): 514/960 | LPS induced genes inhibited / LPS induced genes ([1]; LPS 12 hours): 484/747
